ChEMBL document CHEMBL4602617, “Discovery and optimization of heteroaryl piperazines as potent and selective PI3Kδ inhibitors” (Bioorg Med Chem Lett, 2020)

Legend:
[1] = biological target: Serine/threonine-protein kinase 3 (Homo sapiens, UniProt Q13188); experiment: Inhibition of recombinant full length human GST-tagged MST2 expressed in baculovirus expression system using serine/threonine-7 peptide as substrate incubated for 60 mins in presence of ATP by Z'-LYTE assay
[2] = biological target: Acetylcholine receptor subunit alpha (Homo sapiens) (UniProt P02708); experiment: Displacement of [125I]-alpha-Bungarotoxin from full length nAChR alpha1 receptor in human RD cell membranes at 10 uM measured after 120 mins by radiometric scintillation analysis relative to control
Aurora kinase A = Aurora kinase A (Homo sapiens, UniProt O14965); experiment: Inhibition of recombinant human full length AURKA expressed in baculovirus expression system using Ser/Thr-01 peptide as substrate after 1 hr in presence of ATP by Z'LYTE assay
[3] = biological target: Ribosomal protein S6 kinase alpha-6 (Homo sapiens, UniProt Q9UK32); experiment: Inhibition of recombinant full length human N-terminal GST-tagged RPS6KA6 expressed in baculovirus expression system using ser/Thr20 peptide as substrate incubated for 60 mins in presence of ATP by Z'-LYTE assay
Ribosomal protein S6 kinase alpha-6, sequence (Q9UK32 whole entry): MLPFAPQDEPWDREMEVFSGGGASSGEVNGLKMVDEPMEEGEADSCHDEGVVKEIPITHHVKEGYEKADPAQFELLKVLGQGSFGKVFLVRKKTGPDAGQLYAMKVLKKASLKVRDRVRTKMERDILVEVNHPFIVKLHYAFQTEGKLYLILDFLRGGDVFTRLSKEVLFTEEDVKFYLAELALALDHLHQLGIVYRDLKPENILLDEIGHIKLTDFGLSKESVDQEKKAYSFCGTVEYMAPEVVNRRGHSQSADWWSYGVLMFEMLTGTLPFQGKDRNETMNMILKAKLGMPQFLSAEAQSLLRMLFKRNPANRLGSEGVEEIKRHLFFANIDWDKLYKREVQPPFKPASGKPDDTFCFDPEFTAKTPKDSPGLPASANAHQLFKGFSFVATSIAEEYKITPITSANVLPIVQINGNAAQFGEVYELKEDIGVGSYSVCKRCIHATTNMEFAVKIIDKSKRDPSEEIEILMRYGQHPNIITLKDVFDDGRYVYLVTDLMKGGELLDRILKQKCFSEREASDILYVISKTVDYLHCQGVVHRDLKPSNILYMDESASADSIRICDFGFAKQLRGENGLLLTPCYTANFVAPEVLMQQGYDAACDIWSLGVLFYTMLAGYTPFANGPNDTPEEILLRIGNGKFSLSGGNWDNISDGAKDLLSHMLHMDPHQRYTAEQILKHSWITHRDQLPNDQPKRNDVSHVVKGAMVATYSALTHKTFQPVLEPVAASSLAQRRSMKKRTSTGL

[4] = biological target: Serine/threonine-protein kinase Chk1 (Homo sapiens, UniProt O14757); experiment: Inhibition of recombinant human full-length His-tagged CHEK1 expressed in baculovirus expression system using FRET-labeled Ser/Thr 19 peptide as substrate measured after 1 hr in presence of ATP by Z'-lyte assay
[5] = biological target: Histamine H1 receptor (Homo sapiens) (UniProt P35367); experiment: Displacement of [3H]pyrilamine from full length human recombinant histamine H1 receptor expressed in CHO-K1 cells at 10 uM measured after 180 mins by radiometric scintillation analysis relative to control; format: cell-based
[6] = biological target: Endothelin receptor type B (Homo sapiens) (UniProt P24530); experiment: Displacement of [125I]endothelin-1 from recombinant full length human recombinant ETB receptor expressed in CHO-K1 cells at 10 uM measured after 120 mins by radiometric scintillation analysis relative to control; format: cell-based
Endothelin receptor type B (Homo sapiens), sequence (P24530 whole entry): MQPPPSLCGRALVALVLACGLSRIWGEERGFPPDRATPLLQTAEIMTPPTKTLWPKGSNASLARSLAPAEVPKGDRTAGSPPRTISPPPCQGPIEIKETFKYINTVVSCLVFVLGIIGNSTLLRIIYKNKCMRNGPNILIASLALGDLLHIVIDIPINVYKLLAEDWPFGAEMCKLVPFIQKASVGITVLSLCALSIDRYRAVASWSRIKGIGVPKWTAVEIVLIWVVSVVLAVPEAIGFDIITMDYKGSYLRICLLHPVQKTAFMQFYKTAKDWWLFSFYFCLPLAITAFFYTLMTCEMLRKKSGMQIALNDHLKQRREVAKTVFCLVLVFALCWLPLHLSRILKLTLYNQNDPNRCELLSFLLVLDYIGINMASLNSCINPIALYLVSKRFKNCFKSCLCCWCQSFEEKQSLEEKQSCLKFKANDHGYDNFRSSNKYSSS

Homo sapiens = species on record: Homo sapiens; experiment: Inhibition of recombinant human PKA expressed in Escherichia coli at 10 uM using peptide as substrate after 15 mins by radiometric scintillation analysis relative to control
[7] = biological target: Substance-P receptor (Homo sapiens) (UniProt P25103); experiment: Displacement of [3H]substance P from recombinant full length human NK1R expressed in CHO cells at 10 uM after 90 mins by radiometric scintillation analysis relative to control; format: cell-based
[8] = biological target: Epidermal growth factor receptor (Homo sapiens, UniProt P00533); experiment: Inhibition of recombinant human GST-tagged EGFR expressed in baculovirus expression system using tyr-04 peptide as substrate incubated for 60 mins in presence of ATP by Z'-LYTE assay
Rattus norvegicus = species on record: Rattus norvegicus; experiment: Displacement of [3H]TBOB from GABAA chloride channel receptor in Wistar rat whole brain membranes at 10 uM measured after 120 mins by radiometric scintillation analysis relative to control; format: cell membranes; settings: Membrane
[9] = biological target: Epidermal growth factor receptor (Homo sapiens, UniProt P00533, L858R); experiment: Inhibition of human recombinant GST-tagged EGFR L858R mutant expressed in baculovirus expression system using tyrosine 4 peptide as substrate after 60 mins in presence of ATP FRET based Z'-LYTE assay
CDK7/Cyclin H/MNAT1 = CDK7/Cyclin H/MNAT1 (Homo sapiens, UniProt P50613); experiment: Inhibition of recombinant full length human His-tagged CDK7/CyclinH/MAT1 expressed in baculovirus expression system using CDK7/9tide peptide as substrate incubated for 60 mins in presence of ATP by Adapta assay
CDK7/Cyclin H/MNAT1, sequence (P51946 whole entry): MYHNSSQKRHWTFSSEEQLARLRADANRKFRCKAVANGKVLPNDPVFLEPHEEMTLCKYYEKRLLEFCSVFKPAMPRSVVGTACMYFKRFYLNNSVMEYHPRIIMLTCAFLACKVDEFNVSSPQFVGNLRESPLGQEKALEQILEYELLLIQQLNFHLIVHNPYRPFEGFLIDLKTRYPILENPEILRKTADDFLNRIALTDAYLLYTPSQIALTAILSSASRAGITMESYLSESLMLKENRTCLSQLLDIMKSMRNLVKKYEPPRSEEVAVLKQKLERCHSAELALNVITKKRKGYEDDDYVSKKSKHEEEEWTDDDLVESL
CDK7/Cyclin H/MNAT1, sequence (P50613 whole entry): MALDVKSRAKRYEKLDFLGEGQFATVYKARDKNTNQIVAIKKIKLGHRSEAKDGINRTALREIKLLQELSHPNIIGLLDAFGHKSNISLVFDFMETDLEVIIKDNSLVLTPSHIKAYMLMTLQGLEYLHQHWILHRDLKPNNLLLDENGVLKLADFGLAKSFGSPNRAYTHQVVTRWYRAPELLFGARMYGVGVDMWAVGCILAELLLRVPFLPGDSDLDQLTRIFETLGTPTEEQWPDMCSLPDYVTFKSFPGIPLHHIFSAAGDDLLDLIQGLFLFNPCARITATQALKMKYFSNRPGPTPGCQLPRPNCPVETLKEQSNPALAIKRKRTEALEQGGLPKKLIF
CDK7/Cyclin H/MNAT1, sequence (P51948 whole entry, further chain): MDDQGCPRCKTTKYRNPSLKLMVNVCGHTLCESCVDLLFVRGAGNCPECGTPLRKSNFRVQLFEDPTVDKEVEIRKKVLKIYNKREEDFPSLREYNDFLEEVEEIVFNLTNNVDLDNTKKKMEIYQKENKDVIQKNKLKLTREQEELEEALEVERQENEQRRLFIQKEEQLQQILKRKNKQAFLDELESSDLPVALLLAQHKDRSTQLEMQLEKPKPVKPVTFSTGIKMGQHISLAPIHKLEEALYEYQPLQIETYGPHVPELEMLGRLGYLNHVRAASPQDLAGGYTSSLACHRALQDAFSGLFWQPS

[10] = biological target: Calcium/calmodulin-dependent protein kinase type IV (Homo sapiens, UniProt Q16566); experiment: Inhibition of recombinant full length human full length GST-tagged CAMK4 expressed in Escherichia coli expression system using serine/threonine-13 peptide as substrate incubated for 60 mins in presence of ATP by Z'-LYTE assay
Calcium/calmodulin-dependent protein kinase type IV, sequence (Q16566 whole entry): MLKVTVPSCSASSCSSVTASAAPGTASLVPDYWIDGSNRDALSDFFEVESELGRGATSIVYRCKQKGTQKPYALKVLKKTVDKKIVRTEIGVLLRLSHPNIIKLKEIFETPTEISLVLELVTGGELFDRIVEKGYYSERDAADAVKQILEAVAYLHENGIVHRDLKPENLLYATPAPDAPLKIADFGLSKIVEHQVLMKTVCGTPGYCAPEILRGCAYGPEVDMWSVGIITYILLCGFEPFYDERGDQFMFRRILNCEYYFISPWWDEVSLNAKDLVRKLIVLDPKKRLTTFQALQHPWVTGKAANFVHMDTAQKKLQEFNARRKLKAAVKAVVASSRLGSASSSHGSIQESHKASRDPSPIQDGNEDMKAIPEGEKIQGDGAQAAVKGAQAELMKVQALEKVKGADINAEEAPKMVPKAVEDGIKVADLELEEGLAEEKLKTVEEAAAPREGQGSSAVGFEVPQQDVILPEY

[11] = biological target: Prostaglandin E2 receptor EP1 subtype (Homo sapiens) (UniProt P34995); experiment: Displacement of [3H]prostaglandin E2 from full length human recombinant EP1 receptor expressed in HEK293 cells at 10 uM measured after 60 mins by radiometric scintillation analysis relative to control; format: cell-based
[12] = biological target: Hepatocyte growth factor receptor (Homo sapiens, UniProt P08581); experiment: Inhibition of human recombinant His-tagged cMET cytoplasmic domain expressed in baculovirus expression system using tyrosine 6 peptide as substrate after 60 mins in presence of ATP FRET based Z'-LYTE assay
Hepatocyte growth factor receptor, sequence (P08581 whole entry, the tested form may be a part): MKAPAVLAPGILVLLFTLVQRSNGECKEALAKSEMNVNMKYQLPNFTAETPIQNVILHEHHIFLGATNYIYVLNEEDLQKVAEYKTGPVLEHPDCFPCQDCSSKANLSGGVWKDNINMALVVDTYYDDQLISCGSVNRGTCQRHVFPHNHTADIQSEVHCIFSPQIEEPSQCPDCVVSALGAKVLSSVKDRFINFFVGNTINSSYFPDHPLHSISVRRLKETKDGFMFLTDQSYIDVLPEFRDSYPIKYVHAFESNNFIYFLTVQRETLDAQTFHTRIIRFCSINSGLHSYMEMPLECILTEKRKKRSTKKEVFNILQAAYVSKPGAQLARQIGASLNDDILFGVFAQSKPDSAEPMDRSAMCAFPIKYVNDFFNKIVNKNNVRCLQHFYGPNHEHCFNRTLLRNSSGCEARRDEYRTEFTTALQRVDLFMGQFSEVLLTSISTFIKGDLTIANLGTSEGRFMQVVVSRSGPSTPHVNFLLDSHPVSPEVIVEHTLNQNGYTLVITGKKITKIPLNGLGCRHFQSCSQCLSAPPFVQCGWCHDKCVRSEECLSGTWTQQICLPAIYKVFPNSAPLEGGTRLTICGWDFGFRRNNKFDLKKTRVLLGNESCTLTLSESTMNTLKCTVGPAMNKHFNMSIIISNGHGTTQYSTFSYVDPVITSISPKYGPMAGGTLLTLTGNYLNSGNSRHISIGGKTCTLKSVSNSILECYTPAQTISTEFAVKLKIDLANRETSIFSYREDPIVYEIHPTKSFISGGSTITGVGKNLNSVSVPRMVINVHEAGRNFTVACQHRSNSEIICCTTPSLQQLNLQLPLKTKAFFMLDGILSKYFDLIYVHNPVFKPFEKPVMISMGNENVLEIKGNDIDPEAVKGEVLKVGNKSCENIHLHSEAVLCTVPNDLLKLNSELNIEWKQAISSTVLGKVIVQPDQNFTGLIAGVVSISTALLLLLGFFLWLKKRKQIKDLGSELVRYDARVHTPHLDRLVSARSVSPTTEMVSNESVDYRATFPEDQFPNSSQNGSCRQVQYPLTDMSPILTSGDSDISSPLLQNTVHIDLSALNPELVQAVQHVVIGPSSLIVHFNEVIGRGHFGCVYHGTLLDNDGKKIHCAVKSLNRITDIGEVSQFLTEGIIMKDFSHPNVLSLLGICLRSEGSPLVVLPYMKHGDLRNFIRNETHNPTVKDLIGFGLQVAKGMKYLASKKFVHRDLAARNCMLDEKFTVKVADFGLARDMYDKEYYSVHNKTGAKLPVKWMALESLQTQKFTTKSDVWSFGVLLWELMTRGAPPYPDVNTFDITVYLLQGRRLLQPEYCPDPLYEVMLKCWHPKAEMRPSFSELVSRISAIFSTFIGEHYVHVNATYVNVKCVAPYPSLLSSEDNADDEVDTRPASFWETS

[13] = biological target: Corticotropin-releasing factor receptor 1 (Homo sapiens) (UniProt P34998); experiment: Displacement of [125I](Tyr0)-CRF from recombinant full length human recombinant CRF1 expressed in CHO-K1 cells at 10 uM measured after 60 mins by radiometric scintillation analysis relative to control; format: cell-based
[14] = Protein binding in rat plasma at 0.5 mg/kg, iv or 1 mg/kg, po; format: ADME, organism-based; settings: read-out: PPB (converted)
[15] = biological target: G protein-coupled receptor kinase 5 (Homo sapiens, UniProt P34947); experiment: Inhibition of recombinant full length human GST-tagged GRK5 expressed in baculovirus expression system using serine/threonine-16 peptide as substrate incubated for 60 mins in presence of ATP by Z'-LYTE assay
[16] = biological target: Dual specificity tyrosine-phosphorylation-regulated kinase 1A (Homo sapiens, UniProt Q13627); experiment: Inhibition of recombinant full length human GST-tagged DYRK1A expressed in baculovirus expression system using serine/threonine-18 peptide as substrate incubated for 60 mins in presence of ATP by Z'-LYTE assay
[17] = biological target: Peroxisome proliferator-activated receptor gamma (Homo sapiens) (UniProt P37231); experiment: Displacement of [3H]rosiglitazone from […] human recombinant PPARgamma LBD domain expressed in insect cells at 10 uM measured after 24 hrs by radiometric scintillation analysis relative to control
[18] = biological target: Dual specificity tyrosine-phosphorylation-regulated kinase 4 (Homo sapiens, UniProt Q9NR20); experiment: Inhibition of recombinant full length human GST-tagged DYRK4 expressed in baculovirus expression system using serine/threonine-9 peptide as substrate incubated for 60 mins in presence of ATP by Z'-LYTE assay
Dual specificity tyrosine-phosphorylation-regulated kinase 4, sequence (Q9NR20 whole entry): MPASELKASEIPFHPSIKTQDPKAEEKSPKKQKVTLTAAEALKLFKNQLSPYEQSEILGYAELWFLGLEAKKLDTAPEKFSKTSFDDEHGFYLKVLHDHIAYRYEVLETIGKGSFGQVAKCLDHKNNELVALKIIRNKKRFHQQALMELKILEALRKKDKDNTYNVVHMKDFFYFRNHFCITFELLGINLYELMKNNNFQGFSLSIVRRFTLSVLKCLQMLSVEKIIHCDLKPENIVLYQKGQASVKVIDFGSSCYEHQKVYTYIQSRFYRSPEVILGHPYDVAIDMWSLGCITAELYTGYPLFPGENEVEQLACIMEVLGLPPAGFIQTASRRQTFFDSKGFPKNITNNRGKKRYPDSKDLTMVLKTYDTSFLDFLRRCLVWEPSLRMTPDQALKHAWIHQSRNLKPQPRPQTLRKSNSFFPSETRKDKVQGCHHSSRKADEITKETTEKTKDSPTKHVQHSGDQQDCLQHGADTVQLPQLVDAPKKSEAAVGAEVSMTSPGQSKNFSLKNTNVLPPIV

[19] = biological target: cAMP-dependent protein kinase catalytic subunit PRKX (Homo sapiens, UniProt P51817); experiment: Inhibition of recombinant full length human GST-tagged PRKX expressed in baculovirus expression system using serine/threonine-1 peptide as substrate incubated for 60 mins in presence of ATP by Z'-LYTE assay
[20] = biological target: Adenosine receptor A1 (Homo sapiens) (UniProt P30542); experiment: Displacement of [3H]DPCPX from full length recombinant human A1AR expressed in CHO cell membranes at 10 uM measured after 90 mins by scintillation counting method relative to control
[21] = biological target: Mitogen-activated protein kinase 8 (Homo sapiens, UniProt P45983); experiment: Inhibition of recombinant full length human His-tagged JNK1alpha1 expressed in baculovirus expression system using serine/threonine-4 peptide as substrate incubated for 60 mins in presence of ATP by Z'-LYTE assay
Mitogen-activated protein kinase 8, sequence (P45983 whole entry): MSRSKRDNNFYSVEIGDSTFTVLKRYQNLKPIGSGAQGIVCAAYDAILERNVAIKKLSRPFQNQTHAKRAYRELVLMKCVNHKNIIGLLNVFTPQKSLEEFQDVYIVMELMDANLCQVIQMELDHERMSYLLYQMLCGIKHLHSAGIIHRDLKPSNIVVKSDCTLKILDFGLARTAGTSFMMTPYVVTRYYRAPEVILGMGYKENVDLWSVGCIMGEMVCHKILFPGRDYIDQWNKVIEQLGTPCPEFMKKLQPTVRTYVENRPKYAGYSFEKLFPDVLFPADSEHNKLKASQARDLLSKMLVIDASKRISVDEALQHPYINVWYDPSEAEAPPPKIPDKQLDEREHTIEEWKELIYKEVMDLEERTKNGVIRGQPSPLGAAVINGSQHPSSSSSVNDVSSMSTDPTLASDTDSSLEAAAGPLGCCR

[22] = biological target: Tyrosine-protein kinase HCK (Homo sapiens, UniProt P08631); experiment: Inhibition of recombinant full length N-terminal GST-tagged human HCK expressed in baculovirus expression system using Tyr 02 as substrate after 1 hr in presence of ATP by Z'-LYTE assay

Work on C[C@@H]1C[C@H]1C(=O)N1CCN(c2cnc(C#N)c(-c3cnn(C)c3)n2)C[C@H]1C yielded an IC50 [1] of over 100 µM, an inhibition [2] of 5% and an IC50 (Aurora kinase A) of 16 µM. The IC50 [3] was over 100 µM, the IC50 [4] was over 100 µM and the inhibition [5] was 12%. The inhibition [6] was 2%, the inhibition (Homo sapiens) was -3% and the inhibition [7] was -1%. For the same molecule, the IC50 [8] was over 100 µM, the inhibition (Rattus norvegicus) was -8% and the IC50 [9] was over 100 µM. It also gave an IC50 (CDK7/Cyclin H/MNAT1) of over 100 µM, an IC50 [10] of over 100 µM and an inhibition [11] of 11%. For the same molecule, the IC50 [12] was over 100 µM, the inhibition [13] was 6% and the fraction unbound [14] was 0.152. The IC50 [15] was over 100 µM, the IC50 [16] was over 100 µM and the inhibition [17] was 7%. It also gave an IC50 [18] of over 100 µM, an IC50 [19] of over 100 µM and an inhibition [20] of 10%. It also gave an IC50 [21] of over 100 µM and an IC50 [22] of 37.6 µM.
